These results are taken from US20070043110A1, “Nontoxic potentiation sensitization of ovarian cancer therapy by supplementary treatment with vitamins” (Summa Health System, priority 2001, published 2007).

For orientation: LD50 means the dose expected to kill half of the subjects tested. Usually ILS stands for how much longer treated animals lived than controls.

Molecules are shown by their SMILES. Structures can show the parent of a compound that is named as a salt. Where two headings read alike, the source gives them in different places.

Series [1] deals with murine transplantable liver tumor (TLT). The following applies: cited from earlier work.
For another series, the system named is MDA-MB-231. The series can be described thus: Antitumor activity by MTT assay, MDA-MB-231. The conditions noted are these: Homo sapiens. An excerpt: (§1) The FIC index was used to evaluate the synergism of the vitamins. A FIC<1.0 indicates the combination is synergistic, while a FIC>1.0 indicates the combination is antagonistic. A FIC=1.0 indicates the combination is indifferent. […] During this time, two requests for humanitarian intervention were made.
For orientation: Tetrazolium assays rely on reduction of a dye to a coloured formazan, in cell work by metabolically active cells.

Another series deals with Caki-1. The series can be described thus: Antitumor activity by MTT assay, Caki-1. The following applies: Homo sapiens.
Source text: as §1

In a further series the test system is ES-2 cell line. The experiment in a line: Cytotoxicity (CD50), ES-2. Type of series: cell-based. The following applies: Homo sapiens.
Source text: as §1

For a further series, the system named is prostate cancer. The series can be described thus: Randomized trial in prostate cancer patients, serum HCY and PSA. The following applies: for difference in serum levels of homocysteine and PSA versus control group: individual vitamin treatment groups (Group 2 or Group 3) vs Group 4. Type of series: in vivo, human. Further details: Variation of Serum HCY (mean ± SD): unit not given here. On the procedure: Recently a prospective, randomized trial was performed with 20 prostate cancer patients who had pathologically proven prostate cancer in advanced stages (M1) with osseous metastasis and resistance to hormone therapy. The patients were randomly distributed in four groups of five patients each. […] In Group 2, ascorbic acid was omitted. In Group 3, menadione was omitted. A placebo was administered to patients of Group 4. Only two treatment courses were tested in this study so that the immediate effects of the vitamins in a clinical model could be determined and compared to the immediate induction of autoschizis elicited by the vitamin combination in preclinical models. Homocysteine (a good marker of the number of tumor cells with sensitivity for early detection of tumor cell death induced by treatments) and prostate specific antigen (PSA) assays were performed in the four groups to obtain information about the tumor cell death induced by the treatments. Serum homocysteine (HCY) and PSA were measured the first day of each week (day 1, 8, 15, 22, 29, 36, and […] of the study). […] This fall in serum HCY was highly significant (p<<0.01) in all weekly measures after the first series (day 8-42). […] The reasons for the initial increase in serum PSA levels are unknown.

Another series relates to SKOV3. The series can be described thus: Antitumor activity by MTT assay, SKOV3. The conditions noted are these: Homo sapiens.
Source text: as §1

The next series deals with DU145. The series can be described thus: Antitumor activity by MTT assay, DU145. The conditions noted are these: Homo sapiens.
Source text: as §1

Another series concerns Tera-2. The series can be described thus: Antitumor activity by MTT assay, Tera-2. The following applies: Homo sapiens.
Source text: as §1

The subject of another series is advanced cancer. The conditions noted are these: 10 grams given orally; cited from earlier work.
The test system of another series is J82. The series can be described thus: Antitumor activity by MTT assay, J82. The conditions noted are these: Homo sapiens.
Source text: as §1

A further series deals with CWR22. The experiment in a line: Antitumor activity by MTT assay, CWR22. The conditions noted are these: Homo sapiens.
Source text: as §1

The subject of a further series is T24. The experiment in a line: Antitumor activity by MTT assay, T24. The following applies: Homo sapiens.
Source text: as §1

The next series relates to TCCSUP. The series can be described thus: Antitumor activity by MTT assay, TCCSUP. The conditions noted are these: Homo sapiens, TCC-SUP.
Source text: as §1

The next series relates to RT4. The experiment in a line: Antitumor activity by MTT assay, RT4. The following applies: Homo sapiens.
Source text: as §1

Another series has as its system terminal cancer. The following applies: cited from earlier work.
A further series relates to CAOV-3 cell line. The series can be described thus: Cytotoxicity (CD50), CAOV-3. The series is classed as cell-based. The following applies: Homo sapiens.
Source text: as §1

The next series concerns SCaBER. The experiment in a line: Antitumor activity by MTT assay, SCaBER. The following applies: Homo sapiens.
Source text: as §1

In the next series the test system is MDAH 2774 cells. The series can be described thus: Antitumor activity by MTT assay, MDAH 2774.
Source text: as §1

In the next series the test system is PC3. The experiment in a line: Antitumor activity by MTT assay, PC3. The following applies: Homo sapiens.
Source text: as §1

For series [2] the following is noted: 10 to 100 g twice per week; cited from earlier work.
For series [3] the following is noted: mice; cited from earlier work.
In another series the test system is gastrointestinal cancer. The following applies: VK3 with mitomycin C; 43 patients; cited from earlier work.
For series [4] the following is noted: bisulfite form; cited from earlier work.
A further series concerns hepatoma. The conditions noted are these: weekly i.p. 10 mg/2 mL for 4 weeks, cited from earlier work.
The conditions of series [5]: mouse, in vivo.
A further series relates to advanced lung cancer. The following applies: cited from earlier work.
In a further series the test system is tumor growth. The following applies: cited from earlier work.
For series [6] the following is noted: 400-500 mg/day over 3-5 consecutive days; cited from earlier work.
The conditions of series [7]: cited from earlier work.
Where [8] appears, read: assay day 8, oral 7 day courses from day 1 and day 22, VC 5 g/m^2/day, VK3 50 mg/m^2/day, pretreatment = 0.
[9] abbreviates: read-out: Vitamins Alone, Vit C 50% Cytotoxic Dose.
[10] abbreviates: read-out: Vitamins Alone, Vit K3 50% Cytotoxic Dose.

On to `CC[C@]1(O)C[C@H]2CN(CCc3c([nH]c4ccccc34)[C@@](C(=O)OC)(c3cc4c(cc3OC)N(C=O)[C@H]3[C@@](O)(C(=O)OC)[C@H](OC(C)=O)[C@]5(CC)C=CCN6CC[C@]43[C@@H]65)C2)C1` [Oncovin, vincristine sulfate], for which the MST in series [1] (second study, each agent alone, Oncovin 0.3 mg/kg) is recorded as 19.0 days.
With `O=C1O[C@H]([C@@H](O)CO)C([O-])=C1O.[Na+]` [Vitamin C, Sodium Ascorbate], the IC50 in the series on MDA-MB-231 (MDA-MB-231, read-out: Vitamins Alone, Vit C 50% Cytotoxic Dose) amounted to 466 ± 3.23 µM; in the series on Caki-1 (CAKI-1, read-out: Vitamins Alone, Vit C 50% Cytotoxic Dose) it was 376 ± 1 µM; with ES-2 cell line (read-out: CD50, VC alone) it was 197 µM; in the series with SKOV3 (SK-OV-3, read-out: Vitamins Alone, Vit C 50% Cytotoxic Dose) it was 755 ± 24.1 µM; with DU145 (DU-145, read-out: Vitamins Alone, Vit C 50% Cytotoxic Dose), 2460 ± 28 µM; in the series with Tera-2 (setting [9]) it was 1312 ± 10 µM. Moreover, the IC50 with J82 (J82, read-out: Vitamins Alone, Vit C 50% Cytotoxic Dose) stood at 376 ± 1 µM; in the series with CWR22 (CWR22, read-out: Vitamins Alone, Vit C 50% Cytotoxic Dose), 254 ± 1.02 µM; with T24 (T-24, read-out: Vitamins Alone, Vit C 50% Cytotoxic Dose), 1490 ± 141 µM; in the series on TCCSUP (setting [9]), 297 ± 7 µM; with RT4 (RT-4, read-out: Vitamins Alone, Vit C 50% Cytotoxic Dose), 2430 ± 28 µM; in the series on CAOV-3 cell line (Caov-3, read-out: CD50, vitamin C alone) it was 1360 µM. The IC50 in the series with SCaBER (setting [9]) stood at 327 ± 6 µM; in the series with MDAH 2774 cells (Homo sapiens, MDAH 2774, read-out: Vitamins Alone, Vit C 50% Cytotoxic Dose, MDAH, Ovarian) it was 1530 µM; in the series with MDAH 2774 cells (read-out: Vitamins Alone, Vit C 50% Cytotoxic Dose, MDAH, Ovarian) it was 1520 ± 29 µM; with PC3 (PC-3, read-out: Vitamins Alone, Vit C 50% Cytotoxic Dose), 2360 ± 39 µM. Besides, the increased lifespan in series [1] (VC alone 1 g/Kg body weight) is recorded as 14.7%. For the same compound, the “Variation of Serum HCY (mean ± SD)” value with prostate cancer (setting [8]) is listed as 0.59 ± 0.508; in the series on prostate cancer (assay day 15) it was 0.74 ± 0.349; in the series with prostate cancer (assay day 22) it was 1.24 ± 0.448; in the series with prostate cancer (assay day 29), 1.45 ± 0.498; with prostate cancer (assay day 36), 1.32 ± 0.448; in the series on prostate cancer (assay day 42), 1.34 ± 0.486. In the series on prostate cancer, the “difference in serum levels of homocysteine and PSA versus control group” value is “non-significant difference”. Besides, the “effectiveness of oral Vitamin C” value in the series with advanced cancer was “no benefits”. Besides, the mean survival time result in the series on terminal cancer (100 terminal cancer patients, 10 g/day i.v. for 10 days then 10 g/day orally, controls 50 days) is “more than 210 days”; in the series on terminal cancer (six ovarian cancer patients, controls 71 days) it was 148 days. Further, the “remissions with high doses of i.v. VC” value in series [2] is listed as “a small number of complete remissions”.
For `CC1=CC(=O)c2ccccc2C1=O` [Vitamin K3, 2-Methyl-1,4-Naphthoquinone], the IC50 in the series on MDA-MB-231 (MDA-MB-231, read-out: Vitamins Alone, Vit K3 50% Cytotoxic Dose) was 7.1 ± 0.21 µM; with Caki-1 (CAKI-1, read-out: Vitamins Alone, Vit K3 50% Cytotoxic Dose) it was 19.3 ± 0.33 µM; in the series with ES-2 cell line (read-out: CD50, VK alone) it was 25 µM; in the series on SKOV3 (SK-OV-3, read-out: Vitamins Alone, Vit K3 50% Cytotoxic Dose), 22 ± 1.93 µM; with DU145 (DU-145, read-out: Vitamins Alone, Vit K3 50% Cytotoxic Dose) it was 12.9 ± 0.81 µM; in the series with Tera-2 (setting [10]), 21.8 ± 0.73 µM. Further, the IC50 in the series with J82 (J82, read-out: Vitamins Alone, Vit K3 50% Cytotoxic Dose) is 8.2 ± 0.15 µM; in the series with CWR22 (CWR22, read-out: Vitamins Alone, Vit K3 50% Cytotoxic Dose) it was 4.1 ± 0.33 µM; in the series on T24 (T-24, read-out: Vitamins Alone, Vit K3 50% Cytotoxic Dose) it was 13.1 ± 0.01 µM; in the series with TCCSUP (setting [10]), 6.3 ± 0.06 µM; with RT4 (RT-4, read-out: Vitamins Alone, Vit K3 50% Cytotoxic Dose), 12.8 ± 0.03 µM; in the series with CAOV-3 cell line (Caov-3, read-out: CD50, VK3 alone) it was 22 µM. Also, the IC50 in the series on SCaBER (setting [10]) is 9.7 ± 0.15 µM; in the series on MDAH 2774 cells (Homo sapiens, MDAH 2774, read-out: Vitamins Alone, Vit K3 50% Cytotoxic Dose, MDAH, Ovarian) it was 41.8 µM; with PC3 (PC-3, read-out: Vitamins Alone, Vit K3 50% Cytotoxic Dose) it was 11.4 ± 0.13 µM. In series [3], the LD50 is 500 mg/kg. In addition, in series [1] (VK3 alone 0.01 g/Kg body weight), the increased lifespan was 1.07%. For the same compound, in the series with gastrointestinal cancer, the response to therapy result is listed as “no objective response”. The “Variation of Serum HCY (mean ± SD)” value in the series with prostate cancer (setting [8]) is listed as 0.468 ± 0.362; in the series with prostate cancer (assay day 15), 0.59 ± 0.227; in the series with prostate cancer (assay day 22), 0.68 ± 0.210; with prostate cancer (assay day 29), 0.76 ± 0.341; in the series with prostate cancer (assay day 36), 1.12 ± 0.400; with prostate cancer (assay day 42), 1.3 ± 0.432. The “difference in serum levels of homocysteine and PSA versus control group” value in the series with prostate cancer was “non-significant difference”. The solubility result in series [4] is listed as “water soluble”. Moreover, the long term survivors in the series on hepatoma was 5 out of 16. In addition, the survival in the series on hepatoma (control rats 17 days) is 60 days. Further, the toxicity to livers result in series [5] is listed as “no toxicity”. Further, the median survival in the series with advanced lung cancer (VK3 in combination with mitomycin C, 23 patients) is recorded as 5.5 months. Besides, in the series with advanced lung cancer (VK3 with mitomycin C), the “patients exhibiting hematologic toxicity” value was 30%. Moreover, the “patients exhibiting some tumor regression” value in the series with advanced lung cancer (VK3 with mitomycin C) is 26%. Also, the “inhibition of tumor growth” value is reported as 84% with tumor growth (VK3 225 mg/kg/day with methotrexate) and 99% in the series with tumor growth (menadione 250 mg/kg/day with methotrexate 0.75 mg/kg/day). Moreover, the “circulating levels of VK3 that induce synergism with methotrexate” value in the series with tumor growth (rat, in vivo) was at least 1 µM. The “toxicity in phase I clinical trials” value in [6] is “without any appreciable toxicity”. Moreover, the “maximum tolerated dose of VK3” value in [7] (48-hour intravenous infusion, followed by mitomycin C 15 mg/m2 every four weeks) is 2.5 g/m^2. In addition, in series [7] (i.v., in conjunction with mitomycin C, Phase I and Phase II trials), the tolerability result is “well tolerated”. In addition, the “hemolysis at maximum tolerated dose” value in series [7] (with mitomycin C every four weeks) is “no hemolysis”.
Take `O=P1(N(CCCl)CCCl)NCCCO1` (stereo not shown) [cyclophosphamide]: the increase in lifespan (ILS) in series [1] (single dose of cyclophosphamide 80 mg/kg body weight) is recorded as 23%. Besides, the MST in series [1] (single dose of cyclophosphamide 80 mg/kg body weight, untreated 16.8 days) was 20.6 days.
